EC50 and CC50 data for 19 compounds are collected here from patent US11952374B2, “Bicyclic compounds” (Aligos Therapeutics, Inc., priority 2020, dated 2024).

Each structure is given as a SMILES string. Like-named read-outs stand apart in the source and are kept apart here. A value given as a limit tells only on which side of the number the result lay.

The test system of one series is HBV. In words: HBV-DNA antiviral assay using HepG2.117 cells (intracellular HBV DNA by qPCR). The format is cell-based, HBV genotype D. Conditions: Hepatitis B virus. The protocol:
(§1) The following assay procedure describes the HBV antiviral assay, using HepG2.117 cells, which carry a stably integrated genotype D HBV genome under the control of a Tet-off promoter, and intracellular HBV DNA quantification as endpoint. Cell viability is assessed in parallel by measuring the intracellular ATP content using CellTiter-Glo 2.0 (Promega).
On day 0, HepG2.117 cells (which are maintained in routine cell culture with doxycycline present in the medium at a final concentration of 1 μg/mL) are seeded in 96-well plates (white with clear bottom) at a density of 2.0×10^4 cells/well (0.1 mL/well) in medium without doxycycline to induce pgRNA transcription and subsequent formation of HBV particles. The cells are incubated at 37° C. and 5% CO2.
(§2) On day 1, medium is removed from each well, the test articles are diluted in culture medium without doxcycyline and 100 μL was added to cell culture wells (9 concentrations, 4-fold dilution). For each plate, 6 untreated (merely DMSO) wells are included. The final concentration of DMSO in the culture medium is 2%. Each plate is prepared in duplicate (one for HBV DNA extraction, one for CellTiter-Glo 2.0 measurement). The cells are incubated at 37° C. and 5% CO2 for 3 days.
(§3) On day 4, cell viability is assessed using CellTiter-Glo 2.0 and cell lysates are prepared for HBV DNA extraction and subsequent quantification by qPCR.
Medium is removed from each well and 100 μL of 0.33% NP-40 in H2O was added to each well. Plates are sealed, incubated at 4° C. for 5 mins, vortexed extensively and centrifuged briefly. Next, 35 μL of lysate is added to 65 μL QuickExtract DNA Extraction Solution (Epicentre) in a PCR plate for each well. PCR plate is incubated at 65° C. for 6 mins, 98° C. for 2 mins and finally cooled to 4° C. HBV DNA is then quantified by qPCR with HBV-specific primers and probes as specified in Table 2 using the Bio-Rad SSOAdvanced Universal Probes Supermix on a CFX96 machine (Bio-Rad). The PCR cycle program consisted of 95° C. for 3 mins, followed by 40 cycles at 95° C. for 10 sec and 60° C. for 30 sec.
A DNA standard is prepared by dilution of an IDT gBlock corresponding to the amplicon with concentrations ranging from 10^A2 to 10^A8 copies/input (i.e. per 4 μL) and used to generate a standard curve by plotting Cq values vs. HBV DNA standard concentration. The quantity of HBV DNA in each sample is determined by interpolating from the standard curve.
(§4) Cell viability is calculated as follows: % Cell viability=(luminescence value of test sample)/(average luminescence value of 2% DMSO control)×100%. HBV DNA inhibition was calculated as follows: 100−(HBV DNA copy number of test sample)/(average HBV DNA copy number of 2% DMSO control)×100%. No normalization to entecavir is required due to the excellent dynamic window of this assay. The CC50, EC50 and EC90 values were determined by dose-response curves fitted using non-linear regression.

The nature of series [1]: Cell viability by CellTiter-Glo 2.0 (intracellular ATP) in HepG2.117 cells. The format is cell-based. Conditions: human, CellTiter-Glo 2.0, 3 days incubation. The protocol: as §1, §2, §3
Using the other plates, the cell viability is quantified by CellTiter-Glo 2.0 according to the manufacturer's manual. In brief, 100 μL of reagent solution is added to the culture plates and shaken for 2′. The plates are incubated at room temperature for 10 min and luminescence signal is subsequently measured on a VarioSkan Lux (ThermoFisher) plate reader.
as §4
(ATP-based viability assays read luminescence as a measure of living cells.)

[2] abbreviates: 72 h, HBV DNA inhibition, HepG2.117 cells, 3 days incubation, read-out: EC50.

As for `CNC(=O)c1ccc(-n2c(-n3cc(CC(C)C)cn3)nc3c(c2=O)C[C@@H](C)N(C(=O)c2ccc(Br)c(C(F)(F)F)c2)C3)cc1` [Compound 16], in the series on HBV (setting [2]), the EC50 was 0.05 to 0.5 µM. In series [1], this compound yielded a CC50 at 3 days greater than 50 µM.

With `CNC(=O)c1ccc(-n2c(NCc3ccccc3-c3ccccn3)nc3c(c2=O)C[C@@H](C)N(C(=O)c2ccc(Br)c(C(F)(F)F)c2)C3)c(Cl)c1` (single isomer, unassigned) [Compound 1a], the EC50 with HBV (setting [2]) is less than 0.05 µM. The same compound showed a CC50 at 3 days in series [1] greater than 50 µM.

As for `CNC(=O)c1ccc(-n2c(N(Cc3ccccc3)CC3CC3)nc3c(c2=O)C[C@@H](C)N(C(=O)c2ccc(Br)c(C(F)(F)F)c2)C3)cc1` [Compound 4, (R)-4-(2-(benzyl(cyclopropylmethyl)amino)-7-(4-bromo-3-(trifluoromethyl)benzoyl)-6-methyl-4-oxo-5,6,7,8-tetrahydropyrido[3,4-d]pyrimidin-3(4H)-yl)-N-methylbenzamide], the EC50 with HBV (setting [2]) was less than 0.05 µM. This compound also showed a CC50 at 3 days in series [1] greater than 50 µM.

With `CNC(=O)c1ccc(-n2c([C@@H]3CCCN3C(C)C)nc3c(c2=O)CC(C)N(C(=O)c2ccc(Br)c(C(F)(F)F)c2)C3)cc1` (single isomer, unassigned) [Compound 11a], the EC50 with HBV (setting [2]) lay in the range of 0.5 to 5 µM. For the same compound, the CC50 at 3 days in series [1] was greater than 50 µM.

For `CNC(=O)c1ccc(-n2c(-n3ccc(C4CC4)n3)nc3c(c2=O)C[C@@H](C)N(C(=O)c2ccc(Br)c(C(F)(F)F)c2)C3)cc1` [Compound 10, (R)-4-(7-(4-bromo-3-(trifluoromethyl)benzoyl)-2-(3-cyclopropyl-1H-pyrazol-1-yl)-6-methyl-4-oxo-5,6,7,8-tetrahydropyrido[3,4-d]pyrimidin-3(4H)-yl)-N-methylbenzamide], in the series on HBV (setting [2]), the EC50 is less than 0.05 µM. In series [1], this compound displayed a CC50 at 3 days greater than 50 µM.

Consider `CNC(=O)c1ccc(-n2c(-n3ccc(CC(C)C)n3)nc3c(c2=O)C[C@@H](C)N(C(=O)c2ccc(Br)c(C(F)(F)F)c2)C3)cc1` [Compound 14], for which the EC50 in the series on HBV (setting [2]) is less than 0.05 µM. In series [1], this compound gave a CC50 at 3 days greater than 50 µM.

Take `CNC(=O)c1ccc(-n2c(N(Cc3ccccc3)C3CN(C)C3)nc3c(c2=O)C[C@@H](C)N(C(=O)c2ccc(Br)c(C(F)(F)F)c2)C3)cc1` [Compound 13, (R)-4-(2-(benzyl(1-methylazetidin-3-yl)amino)-7-(4-bromo-3-(trifluoromethyl)benzoyl)-6-methyl-4-oxo-5,6,7,8-tetrahydropyrido[3,4-d]pyrimidin-3(4H)-yl)-N-methylbenzamide]: the 50% effective concentration (EC50) in the series with HBV (setting [2]) is 0.5 to 5 µM. The CC50 at 3 days in series [1] came out at 27 µM.

Regarding `COc1ccc(-n2c(-c3ccccc3)nc3c(c2=O)CCN(C(=O)c2ccc(Br)c(C(F)(F)F)c2)C3)cc1` [Compound 7, 7-(4-bromo-3-(trifluoromethyl)benzoyl)-3-(4-methoxyphenyl)-2-phenyl-5,6,7,8-tetrahydropyrido[3,4-d]pyrimidin-4(3H)-one], the EC50 with HBV (HepG2.117, 72 h) lay within 0.5 to 5 µM. Moreover, the CC50 at 3 days in series [1] was greater than 0.5 µM.

Regarding `CNC(=O)c1ccc(-n2c(N(CC3CC3)c3ccccc3)nc3c(c2=O)C[C@@H](C)N(C(=O)c2ccc(Br)c(C(F)(F)F)c2)C3)cc1` [Compound 12, (R)-4-(7-(4-bromo-3-(trifluoromethyl)benzoyl)-2-((cyclopropylmethyl)(phenyl)amino)-6-methyl-4-oxo-5,6,7,8-tetrahydropyrido[3,4-d]pyrimidin-3(4H)-yl)-N-methylbenzamide], the EC50 in the series on HBV (setting [2]) was less than 0.05 µM. In addition, in series [1], the midpoint of cytotoxicity, the CC50 at 3 days, lay at 10.8 µM.

For the compound `CNC(=O)c1ccc(-n2c(-n3ccc(C)n3)nc3c(c2=O)C[C@@H](C)N(C(=O)c2ccc(Br)c(C(F)(F)F)c2)C3)cc1` [Compound 19], the EC50 with HBV (setting [2]) is less than 0.05 µM. This compound also had a CC50 at 3 days in series [1] greater than 50 µM.

Compound `CNC(=O)c1ccc(-n2c(N(Cc3ccccc3)C3CCC3)nc3c(c2=O)C[C@@H](C)N(C(=O)c2ccc(Br)c(C(F)(F)F)c2)C3)cc1` [Compound 5, (R)-4-(2-(benzyl(cyclobutyl)amino)-7-(4-bromo-3-(trifluoromethyl)benzoyl)-6-methyl-4-oxo-5,6,7,8-tetrahydropyrido[3,4-d]pyrimidin-3(4H)-yl)-N-methylbenzamide] returned an EC50 with HBV (HepG2.117, 72 h) of less than 0.05 µM. This compound also yielded a CC50 at 3 days in series [1] greater than 0.5 µM.

As for `CNC(=O)c1ccc(-n2c(-n3cc(C4CC4)cn3)nc3c(c2=O)C[C@@H](C)N(C(=O)c2ccc(Br)c(C(F)(F)F)c2)C3)cc1` [Compound 9, (R)-4-(7-(4-bromo-3-(trifluoromethyl)benzoyl)-2-(4-cyclopropyl-1H-pyrazol-1-yl)-6-methyl-4-oxo-5,6,7,8-tetrahydropyrido[3,4-d]pyrimidin-3(4H)-yl)-N-methylbenzamide], in the series on HBV (setting [2]), the EC50 was 0.05 to 0.5 µM. In series [1], the CC50 at 3 days is 27.8 µM.

For the compound `CNC(=O)c1ccc(-n2c(-n3cccn3)nc3c(c2=O)C[C@@H](C)N(C(=O)c2ccc(Br)c(C(F)(F)F)c2)C3)cc1` [Compound 6, (R)-4-(7-(4-bromo-3-(trifluoromethyl)benzoyl)-6-methyl-4-oxo-2-(1H-pyrazol-1-yl)-5,6,7,8-tetrahydropyrido[3,4-d]pyrimidin-3(4H)-yl)-N-methylbenzamide], the EC50 with HBV (setting [2]) was less than 0.05 µM. For the same compound, in series [1], the CC50 at 3 days is greater than 50 µM.

On to `CCN1CCC(c2nc3c(c(=O)n2-c2ccc(C(=O)NC)cc2)CC(C)N(C(=O)c2ccc(Br)c(C(F)(F)F)c2)C3)C1` (centres unmarked) [Compound 18, 4-(7-(4-bromo-3-(trifluoromethyl)benzoyl)-2-(1-ethylpyrrolidin-3-yl)-6-methyl-4-oxo-5,6,7,8-tetrahydropyrido[3,4-d]pyrimidin-3(4H)-yl)-N-methylbenzamide], for which the EC50 in the series with HBV (setting [2]) is greater than 5 µM. The compound further came in with a CC50 at 3 days in series [1] greater than 50 µM.

In the case of `CNC(=O)c1ccc(-n2c(-n3ccc(C(C)C)n3)nc3c(c2=O)C[C@@H](C)N(C(=O)c2ccc(Br)c(C(F)(F)F)c2)C3)cc1` [Compound 2, (R)-4-(7-(4-bromo-3-(trifluoromethyl)benzoyl)-2-(3-isopropyl-1H-pyrazol-1-yl)-6-methyl-4-oxo-5,6,7,8-tetrahydropyrido[3,4-d]pyrimidin-3(4H)-yl)-N-methylbenzamide], the EC50 in the series on HBV (setting [2]) was less than 0.05 µM. The same compound had a CC50 at 3 days in series [1] greater than 50 µM.

As for `CNC(=O)c1ccc(-n2c(C3CCN(C(=O)OC(C)(C)C)C3)nc3c(c2=O)CC(C)N(C(=O)c2ccc(Br)c(C(F)(F)F)c2)C3)cc1` (centres unmarked) [Compound 17, t-butyl 3-(7-(4-bromo-3-(trifluoromethyl)benzoyl)-6-methyl-3-(4-(methylcarbamoyl)phenyl)-4-oxo-3,4,5,6,7,8-hexahydropyrido[3,4-d]pyrimidin-2-yl)pyrrolidine-1-carboxylate], the EC50 in the series with HBV (setting [2]) fell in the range of 0.05 to 0.5 µM. The compound further displayed a CC50 at 3 days in series [1] of 24.2 µM.

As to `CNC(=O)c1ccc(-n2c(N(Cc3ccccc3)C3CC(F)(F)C3)nc3c(c2=O)C[C@@H](C)N(C(=O)c2ccc(Br)c(C(F)(F)F)c2)C3)cc1` [Compound 3, (R)-4-(2-(benzyl(3,3-difluorocyclobutyl)amino)-7-(4-bromo-3-(trifluoromethyl)benzoyl)-6-methyl-4-oxo-5,6,7,8-tetrahydropyrido[3,4-d]pyrimidin-3(4H)-yl)-N-methylbenzamide], the EC50 in the series on HBV (setting [2]) is less than 0.05 µM. Moreover, the CC50 at 3 days in series [1] is greater than 50 µM.

`CCc1ccn(-c2nc3c(c(=O)n2-c2ccc(C(=O)NC)cc2)C[C@@H](C)N(C(=O)c2ccc(Br)c(C(F)(F)F)c2)C3)n1` [Compound 15]: the EC50 with HBV (setting [2]) was less than 0.05 µM. The compound further gave a CC50 at 3 days in series [1] greater than 50 µM.

On to `CNC(=O)c1ccc(-n2c(-c3cccc(C(C)C)n3)nc3c(c2=O)C[C@@H](C)N(C(=O)c2ccc(Br)c(C(F)(F)F)c2)C3)cc1` [Compound 8, (R)-4-(7-(4-bromo-3-(trifluoromethyl)benzoyl)-2-(6-isopropylpyridin-2-yl)-6-methyl-4-oxo-5,6,7,8-tetrahydropyrido[3,4-d]pyrimidin-3(4H)-yl)-N-methylbenzamide], for which the EC50 in the series with HBV (setting [2]) is less than 0.05 µM. Moreover, the CC50 at 3 days in series [1] worked out at 30 µM.

What is called EC50 is the concentration needed to bring the measured effect to its halfway point. As usually defined, the CC50 is the concentration at which the toxic effect on the cells reaches its halfway point. Lower therefore signals greater toxicity to the cells.
